For 20 molecules, GI50 and TGI results are on record in PubChem BioAssay (NCI).

Several values for one entry are separate records, joined by “and”; a condition that tells them apart may be missing. Identical values can stand only once.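 All cell lines were grown in 96-well plates and treated with compound for 48 hours. Here, GI50 denotes the concentration required for 50% inhibition of growth. TGI: total growth inhibition.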

Common to all, as to test: NCI-60 cell line screen, 48 h
The test system of experiment [1] is SK-OV-3 ovarian.
Experiment [2] concerns M14 melanoma.
The test system of experiment [3] is 786-0 renal.
For experiment [4], the system named is NCI-H23 lung.
In experiment [5] the test system is UACC-257 melanoma.
For experiment [6], the system named is IGROV1 ovarian.
Experiment [7] relates to A549 NSCLC.
Experiment [8] concerns A498 renal.
Experiment [9] concerns UACC-62 melanoma.
Experiment [10] deals with MOLT-4 leukemia.

As for `O=C(N/N=C\c1cc(Cl)ccc1O)N/N=C/c1cc(Cl)ccc1O`, the GI50 in [1] is above 100 µM; in experiment [2], 5.24 µM; in [3], above 100 µM; in experiment [4], 2.34 µM; in experiment [5], 6.6 µM; in experiment [6], 1.56 µM. Besides, the GI50 in experiment [7] was 0.521 µM; in [8], above 100 µM; in [9] it was 0.918 µM; in [10] it was 57.5 µM. Also, the TGI in [1], in experiment [2], in [3], in experiment [4], in [5] and in experiment [6] was above 100 µM in each case. In addition, the TGI in [7], in [8], in experiment [9] and in experiment [10] was above 100 µM in each case.

For the molecule `O=C(O)C1C2CC3CC2CC31` (stereo not given), the TGI in experiment [1], in experiment [2], in experiment [3], in [4], in [5] and in experiment [6] was above 100 µM each time. Moreover, the TGI in experiment [7], in [8], in [9] and in experiment [10] was above 100 µM in each case.

`Fc1ccc(-c2c(-c3ccncc3)n(CCN3CCOCC3)c3cccnc23)cc1`: the GI50 in [1], in [2], in experiment [3], in experiment [4], in experiment [5] and in experiment [6] was above 25 µM in each case. For the same molecule, the GI50 in experiment [7], in experiment [8], in experiment [9] and in [10] was above 25 µM each time. For the same molecule, the TGI in [1], in [2], in experiment [3], in experiment [4], in experiment [5] and in experiment [6] was above 25 µM in each case. The TGI in experiment [7], in experiment [8], in [9] and in [10] was above 25 µM throughout.

For `Clc1cccc(C2SCc3nc4ccccc4n32)c1Cl` (stereo not given), the TGI in experiment [1] was 34.9 µM; in experiment [2], 30.5 µM; in experiment [3] it was 32.8 µM; in experiment [4], 32.1 µM; in experiment [5], 28.5 µM; in experiment [6], 33.6 µM. Besides, the TGI in [7] amounted to 41.9 µM; in [8], 29.2 µM; in experiment [9], 34.3 µM; in [10], 41.9 µM.

On to `O=C(O)CNS(=O)(=O)c1ccc(NC(=O)c2cccc([N+](=O)[O-])c2)cc1`, for which the TGI in experiment [1], in [2], in [3], in experiment [4], in experiment [5] and in [6] was above 100 µM throughout. For the same molecule, the TGI in [7], in experiment [8], in [9] and in [10] was above 100 µM in each case.

Regarding `C1CCN2CC34CC(CC5CCCN(C6CCCC3N6)C54)C2C1` (stereo not given), the TGI in [1], in experiment [2], in [3], in experiment [4], in [5] and in experiment [6] was above 100 µM throughout. Moreover, the TGI in [7], in experiment [8], in [9] and in [10] was above 100 µM throughout.

With `Cc1cc(C(=O)NCCN(C)C)c2nc3ccccc3nc2c1`, the TGI in [1] was above 46 µM; in experiment [2] it was above 33.5 µM; in [3], above 61.9 µM; in [4] it was 23.6 µM; in experiment [5] it was 17.2 µM; in experiment [6], above 29.5 µM. Moreover, the TGI was above 58.7 µM in experiment [7], 16.4 µM in [8], 18.7 µM in experiment [9] and 5.97 µM in [10].

For `Cc1cc(Br)cc(C)c1NC(=O)C(=O)C(C(=O)c1ccc(Cl)c(Cl)c1)C1OC(=O)c2ccccc21` (stereo not given), the TGI in experiment [1], in experiment [2], in [3], in [4], in experiment [5] and in experiment [6] was above 100 µM each time. The TGI in experiment [7], in [8], in experiment [9] and in experiment [10] was above 100 µM in each case.

Turning to `CC(C)=CCC[C@](C)(O)[C@H]1CC[C@]2(C)[C@@H]1CC[C@@H]1[C@@]3(C)CC[C@H](OC(=O)CCC(=O)O)C(C)(C)[C@@H]3CC[C@]12C`, the GI50 in experiment [1] was 47.6 µM; in experiment [2], 73.6 µM; in experiment [3], above 100 µM; in [4], 30.8 µM; in experiment [5] it was 36.9 µM; in experiment [6] it was 18.5 µM. For the same molecule, the GI50 is 32.3 µM in [7], 80.4 µM in experiment [8], 15 µM in [9] and 21 µM in experiment [10]. Further, the TGI in experiment [1] was above 100 µM; in [2], above 100 µM; in experiment [3], above 100 µM; in experiment [4], above 100 µM; in [5] it was above 100 µM; in experiment [6] it was 72.7 µM. In addition, the TGI is above 100 µM in [7], above 100 µM in experiment [8], 32.5 µM in experiment [9] and 94 µM in experiment [10].

`Cc1cc(I)cc(CN(C)CCCCN2CCCC2)c1O`: the GI50 in [1] was 21.6 µM; in [2], 15.1 µM; in experiment [3] it was 15.3 µM; in experiment [4] it was 34.7 µM; in experiment [5], 16.6 µM; in [6], 24.8 µM. The GI50 in experiment [7] is 30.7 µM; in experiment [8], 13.4 µM; in experiment [9] it was 4.19 µM; in experiment [10], 15.5 µM. The TGI is 67.8 µM in experiment [1]; 29.1 µM in experiment [2]; 31.4 µM in experiment [3]; above 100 µM in experiment [4]; 32.8 µM in [5]; 59.1 µM in experiment [6]. Further, the TGI in [7] is above 100 µM; in experiment [8], 30.2 µM; in [9] it was 15.7 µM; in experiment [10], 33.4 µM.

In the case of `COc1ccc(C2CC(C)=Nc3c([nH]c(=S)[nH]c3=O)N2)cc1` (stereo not given), the TGI is 38.2 µM in [1]; 37.4 µM in [2]; 31.2 µM in experiment [3]; 55.6 µM in experiment [4]; 33.9 µM in [5]; 34.5 µM in [6]. Further, the TGI in [7] was 40.4 µM; in experiment [8], 36.9 µM; in experiment [9], 32.1 µM; in experiment [10], 67.4 µM.

Take `CC12CC(=O)NN=C1c1ccccc1C2` (stereo not given): the TGI in experiment [1], in [2], in [3], in experiment [4], in experiment [5] and in experiment [6] was above 100 µM in each case. For the same molecule, the TGI in experiment [7], in experiment [8], in experiment [9] and in experiment [10] was above 100 µM each time.

`O=C1CCCC2COc3ccc(O)c1c32` (stereo not given): the TGI in experiment [1], in [2], in [3], in [4], in experiment [5] and in experiment [6] was above 100 µM in each case. The TGI in experiment [7], in [8], in [9] and in experiment [10] was above 100 µM each time.

For `CCc1ccc(/C=C2/SC(=S)NC2=O)cc1`, the GI50 is 24.6 µM in [1]; 24.3 µM in experiment [2]; 22.6 µM in [3]; 18.6 µM in [4]; 17.7 µM in [5]; 37.5 µM in [6]. Further, the GI50 in experiment [7] is 20.8 µM; in experiment [8], 6.15 µM; in experiment [9], 12.3 µM; in [10], 23.5 µM. For the same molecule, the TGI in experiment [1] was 74.9 µM; in experiment [2], 82.8 µM; in [3], 81.3 µM; in experiment [4], 47 µM; in experiment [5] it was 61.3 µM; in experiment [6], above 100 µM. In addition, the TGI in experiment [7] is above 80.2 µM; in experiment [8], 36.4 µM; in experiment [9] it was 28.9 µM; in [10], 84.3 µM.

Regarding `O=C(O)CCN1C(=O)/C(=C/C(Cl)=C/c2ccccc2)SC1=S`, the GI50 is 7.54 µM in [1]; 2.24 µM in [2]; 3.23 µM in experiment [3]; 1.96 µM in experiment [4]; 1.96 µM in experiment [5]; 2.42 µM in experiment [6]. The GI50 in experiment [7] is 3.52 µM; in [8] it was 1.97 µM; in experiment [9], 1.52 µM; in experiment [10], 1.98 µM. Moreover, the TGI in experiment [1] was 20.1 µM; in experiment [2] it was 8.32 µM; in experiment [3], 10.5 µM; in experiment [4] it was 4.63 µM; in experiment [5] it was 7.81 µM; in experiment [6], 6.98 µM. Also, the TGI in [7] worked out at 15.1 µM; in [8], 3.62 µM; in experiment [9] it was 3.42 µM; in experiment [10], 8.12 µM.

For `O=C(O)c1c(Cl)c(Cl)c(Cl)c(Cl)c1-c1c2cc(I)c(=O)c(I)c-2oc2c(I)c(O)c(I)cc12`, the GI50 in [1] was 32.4 µM; in experiment [2] it was 58.7 µM; in experiment [3], 46.5 µM; in [4], 47 µM; in experiment [5], 53.5 µM; in [6], 88.2 µM and 34.9 µM. Also, the GI50 is 177 µM in experiment [7]; 29.5 µM and 26.1 µM in experiment [8]; 18.6 µM and 31.6 µM in experiment [9]; 40.8 µM in experiment [10]. Further, the TGI was 78.6 µM in [1]; above 200 µM in experiment [2]; 123 µM in experiment [3]; 125 µM in [4]; 163 µM in [5]; 83.8 µM in [6]. For the same molecule, the TGI in experiment [7] was above 200 µM; in experiment [8] it was 64.2 µM; in experiment [9], 41.3 µM and 68.6 µM; in experiment [10], 86.2 µM.

With `CC(C)S(=O)(=O)n1c(N)nc2ccc(/C(=N/O)c3ccccc3)cc21`, the TGI in experiment [1] is 83 µM; in experiment [2], 65.9 µM; in [3], above 100 µM; in experiment [4] it was 60.8 µM; in [5], above 100 µM; in experiment [6] it was 48 µM. In addition, the TGI in [7] was 49.3 µM; in [8] it was 31.7 µM; in experiment [9], 81.8 µM; in experiment [10], 52.2 µM.

On to `O=C(O)C(O)C(O)C1[O][Sb][O]C1CO` (stereo not given), for which the GI50 in experiment [1], in experiment [2], in experiment [3], in [4], in experiment [5] and in experiment [6] was above 100 µM each time. The GI50 in experiment [7], in [8], in [9] and in [10] was above 100 µM throughout. For the same molecule, the TGI in [1], in [2], in [3], in [4], in experiment [5] and in experiment [6] was above 100 µM throughout. For the same molecule, the TGI in experiment [7], in [8], in [9] and in experiment [10] was above 100 µM in each case.

`NC(=O)Cn1c(=O)[nH]c(=O)c2[nH]cnc21`: the TGI in experiment [1], in [2], in experiment [3], in experiment [4], in experiment [5] and in [6] was above 100 µM throughout. Also, the TGI in [7], in experiment [8], in experiment [9] and in [10] was above 100 µM each time.

Consider `CCCCCCCCSC(SCCCCCCCC)=C1C(=O)N(c2ccccc2)N=C1C`, for which the TGI in experiment [1] is above 100 µM; in experiment [2] it was above 100 µM; in [3], above 100 µM; in [4], 95.1 µM; in experiment [5], 93.1 µM; in [6], above 100 µM. The TGI in [7] was above 100 µM; in [8], 92.7 µM; in experiment [9] it was above 100 µM; in experiment [10] it was 82.2 µM.
